Laboratory results reported in publication PMC7920811 (Neoplasia (New York, N.Y.), 2021).

Molecular target: STAT3 (Homo sapiens, UniProt P40763)
Assay: label-free microscale thermophoresis
Type: binding

Sequence of STAT3 (P40763 2-770): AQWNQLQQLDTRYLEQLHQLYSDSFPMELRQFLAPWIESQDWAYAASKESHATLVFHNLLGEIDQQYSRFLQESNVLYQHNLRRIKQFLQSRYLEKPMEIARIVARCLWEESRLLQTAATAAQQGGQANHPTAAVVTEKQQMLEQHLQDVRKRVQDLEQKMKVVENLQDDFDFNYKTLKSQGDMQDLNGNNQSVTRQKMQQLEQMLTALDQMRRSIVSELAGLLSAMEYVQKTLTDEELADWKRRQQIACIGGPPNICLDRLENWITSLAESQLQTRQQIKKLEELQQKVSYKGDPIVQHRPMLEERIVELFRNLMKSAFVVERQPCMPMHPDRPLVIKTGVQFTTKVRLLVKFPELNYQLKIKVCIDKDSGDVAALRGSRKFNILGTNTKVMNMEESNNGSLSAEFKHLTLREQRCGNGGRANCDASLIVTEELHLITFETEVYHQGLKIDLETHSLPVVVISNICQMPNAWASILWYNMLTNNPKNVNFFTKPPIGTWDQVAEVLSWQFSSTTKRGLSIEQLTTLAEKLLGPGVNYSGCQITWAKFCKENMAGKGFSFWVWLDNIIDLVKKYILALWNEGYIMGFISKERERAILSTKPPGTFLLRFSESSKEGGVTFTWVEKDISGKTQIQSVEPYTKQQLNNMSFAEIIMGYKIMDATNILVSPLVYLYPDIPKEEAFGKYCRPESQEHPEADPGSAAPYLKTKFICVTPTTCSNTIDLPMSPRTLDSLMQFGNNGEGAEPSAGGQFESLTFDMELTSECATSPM

CC(=O)Nc1ccc(O)cc1 [AAP, acetaminophen]
Kd: 600 ± 400 nM
